The values below come from patent US20250313547A1, “CEREBLON LIGANDS AND BIFUNCTIONAL COMPOUNDS COMPRISING THE SAME” (Arvinas Operations, Inc., priority 2017, published 2025).

Experiment [1] has as its target Estrogen receptor-alpha (ERα) (Homo sapiens (Human), UniProt P03372). Briefly: ERα degradation assay using In-Cell Western in MCF7 cells. The format is cell-based. Particulars: 5 day incubation, read-out: ER degradation DC50. How it is done:
3. Estrogen Receptor-Alpha (ERα) Degradation Assay Using in-Cell Western™ Assay for Table 5.
Degradation of ERα by claimed compounds were determined in MCF7 cells using an In-Cell Western™ assay. Briefly, MCF7 cells were plated in 96-well plates (2000 cells per well in 100 μl media) and incubated at 37° C. under an atmosphere of 5% CO2 in a humidified incubator overnight. One-hundred (100) μl of media containing test compound (at 2× concentration) was added to the appropriate wells to provide 11 serially decreasing concentrations (top final concentration, 1 μM then 3-fold less for the next 10 concentrations); a vehicle control (DMSO) was also added for each compound. For each experiment, all compounds were assayed in duplicate plates. Cells were then incubated for 3 or 5 days in the above-mentioned environment. The assay was terminated by removal of media, a single wash with ice-cold PBS and the addition of 50 μl paraformaldehyde (PFA: 4% in PBS). After 15 minutes in PFA at room temperature, the cells were permeabilized in Tris-phosphate-buffered saline with Tween (0.1%) (TBST) supplemented with Triton X-100 (0.5%) for 15 minutes. Cells were then blocked in BSA (TBST with BSA, 3%) for one hour. […] The cells were incubated overnight at 4° C. The cells were then washed thrice with TBST at room temperature and then incubated with anti-rabbit and anti-mouse fluorescently-labelled secondary antibodies (IRDye®; LI-COR; Lincoln, NE) in LI-COR blocking buffer (Catalog #927-50000) for one hour at room temperature. Following 3 washes with TBST, the buffer was removed and the plates were read on an Odyssey® infrared imaging system (LI-COR®; Lincoln, NE) at 700 nm and 800 nm. Using commercial software (ImageStudio™; LI-COR, Lincoln, NE), the staining intensity for ERα and tubulin in each well was quantified and exported for analysis. For each data point, ERα intensity was normalized to tubulin intensity and for each compound all normalized intensity values were normalized to the vehicle control. DC50 and Dmax values were determined following a 4-parameter IC50 curve fit using ACAS dose response module (McNeil & Co Inc.).

A further experiment concerns androgen receptor (AR). Kind of experiment: AR ELISA assay (androgen receptor degradation). The format is cell-based. The note with it: LNCaP and/or VCaP cells, 5 hours drug treatment; for AR Dmax: % degraded. The procedure, abridged: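 VCaP cells (LNCaP in some cases) grown at least 3 days in phenol red-free RPMI with 5% charcoal-stripped FBS, then treated with PROTACs in 0.01% DMSO for 5 h. AR level in lysates measured by sandwich ELISA, TMB read at 450 nm.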

Experiment [2] deals with immobilized CRBN protein (cereblon) (Homo sapiens (Human), UniProt Q96SW2). Briefly: Surface plasmon resonance (SPR) KD determination on immobilized cereblon. Particulars: average of at least N=2, 1:1 fit, read-out: KD Binding to immobilized CRBN protein in SPR assay. As for the experimental part:
The surface plasmon resonance (SPR) experiments were conducted on a Biacore3000 (GE Healthcare). Myc-tagged cereblon was immobilized on a carboxymethylated dextran surface (CM5) amine coupled to anti-Myc antibody to recognize the Myc tag. His-tagged cereblon protein was immobilized on a carboxymethylated dextran surface with nitriloacetic acid (NTA), taking advantage of NTA/Ni^2+ chelation. The prepared surface was allowed to equilibrate over three hours in running buffer (10 mM HEPES buffer @pH 7.4, 150 mM NaCl, 0.005% P20,2% DMSO).
All compounds were prepared in 100% DMSO stock plates with a top concentration of 5 mM in a 3× serial dilution. Compounds were transferred from the stock plate to the assay plate and diluted into running buffer containing no DMSO. All compounds were run as a six-concentration series with a final assay top concentration of 100 μM.
Data analysis was performed in Scrubber 2 (BioLogic software, Campbell, Australia). Blanks were subtracted and data was corrected for DMSO against a standard DMSO curve.

immobilized CRBN protein (cereblon), sequence (Q96SW2 whole entry): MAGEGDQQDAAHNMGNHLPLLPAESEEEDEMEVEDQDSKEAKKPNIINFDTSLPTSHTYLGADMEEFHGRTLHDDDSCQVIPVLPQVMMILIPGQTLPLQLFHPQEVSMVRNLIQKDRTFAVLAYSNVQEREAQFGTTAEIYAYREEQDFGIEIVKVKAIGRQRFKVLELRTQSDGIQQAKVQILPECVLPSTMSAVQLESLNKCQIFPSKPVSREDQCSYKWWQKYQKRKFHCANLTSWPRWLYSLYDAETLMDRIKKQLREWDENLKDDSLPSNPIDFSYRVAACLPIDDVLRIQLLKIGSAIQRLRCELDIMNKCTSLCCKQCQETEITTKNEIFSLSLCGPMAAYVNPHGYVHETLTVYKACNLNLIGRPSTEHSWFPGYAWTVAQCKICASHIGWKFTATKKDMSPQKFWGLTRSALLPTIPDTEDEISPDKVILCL
Estrogen receptor-alpha (ERα), sequence (P03372 whole entry): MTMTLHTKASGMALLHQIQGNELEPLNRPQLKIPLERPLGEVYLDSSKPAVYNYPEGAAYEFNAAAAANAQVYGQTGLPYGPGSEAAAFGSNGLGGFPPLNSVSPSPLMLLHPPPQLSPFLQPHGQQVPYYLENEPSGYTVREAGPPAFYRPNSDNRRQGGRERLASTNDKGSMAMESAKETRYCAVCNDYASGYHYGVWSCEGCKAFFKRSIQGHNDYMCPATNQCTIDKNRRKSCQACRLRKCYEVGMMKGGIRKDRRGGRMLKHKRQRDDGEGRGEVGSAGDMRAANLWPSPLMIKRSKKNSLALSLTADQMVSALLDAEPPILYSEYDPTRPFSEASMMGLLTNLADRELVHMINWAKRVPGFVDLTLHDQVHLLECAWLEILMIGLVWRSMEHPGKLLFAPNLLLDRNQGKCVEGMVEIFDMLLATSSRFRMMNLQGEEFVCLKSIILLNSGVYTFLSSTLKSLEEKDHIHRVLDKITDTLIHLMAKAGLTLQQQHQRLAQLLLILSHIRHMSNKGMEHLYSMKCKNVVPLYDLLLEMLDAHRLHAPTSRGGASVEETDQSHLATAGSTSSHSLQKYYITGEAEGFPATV

As for `CN(C(=O)c1ccc(N2CCN(CCCCCOc3ccc([C@@H]4c5ccc(O)cc5CC[C@@H]4c4ccccc4)cc3)CC2)cc1)C1CCC(=O)NC1=O` (mixture of isomers) [PROTAC-90, rac-N-(2,6-dioxopiperidin-3-yl)-4-(4-(5-(4-((1R,2S)-6-hydroxy-2-phenyl-1,2,3,4-tetrahydronaphthalen-1-yl)phenoxy)pentyl)piperazin-1-yl)-N-methylbenzamide], the DC50 in experiment [1] was in the range of 1 to 10 nM.

As to `O=C1CCC(NC(=O)c2ccc(N3CCN(CCCCCOc4ccc([C@@H]5c6ccc(O)cc6CC[C@@H]5c5ccccc5)cc4)CC3)cn2)C(=O)N1` (mixture of isomers) [PROTAC-91, rac-N-(2,6-dioxopiperidin-3-yl)-5-(4-(5-(4-((1R,2S)-6-hydroxy-2-phenyl-1,2,3,4-tetrahydronaphthalen-1-yl)phenoxy)pentyl)piperazin-1-yl)picolinamide], in experiment [1], the DC50 fell in the range of 1 to 10 nM.

As to `O=C1CCC(n2ncc(N3CCN(CCCCCOc4ccc([C@@H]5c6ccc(O)cc6CC[C@@H]5c5ccccc5)cc4)CC3)cc2=O)C(=O)N1` (mixture of isomers) [PROTAC-100, rac-3-(4-(4-(5-(4-((1R,2S)-6-hydroxy-2-phenyl-1,2,3,4-tetrahydronaphthalen-1-yl)phenoxy)pentyl)piperazin-1-yl)-6-oxopyridazin-1(6H)-yl)piperidine-2,6-dione], in experiment [1], the DC50 lay within 1 to 10 nM.

Regarding `O=C1CCC(n2cnc(N3CCN(CCCCCOc4ccc([C@@H]5c6ccc(O)cc6CC[C@@H]5c5ccccc5)cc4)CC3)cc2=O)C(=O)N1` (mixture of isomers) [PROTAC-101, rac-3-(4-(4-(5-(4-((1R,2S)-6-hydroxy-2-phenyl-1,2,3,4-tetrahydronaphthalen-1-yl)phenoxy)pentyl)piperazin-1-yl)-6-oxopyrimidin-1(6H)-yl)piperidine-2,6-dione], the DC50 in experiment [1] is 1 to 10 nM.

With `C=C1CN(C2CCC(=O)NC2=O)C(=O)c2ccc(N3CCN(CC4CCN(c5ccc(C(=O)N[C@H]6C(C)(C)[C@H](Oc7ccc(C#N)c(Cl)c7)C6(C)C)cc5)CC4)CC3)cc21` (stereo partly shown) [PROTAC-81, N-((1r,3r)-3-(3-chloro-4-cyanophenoxy)-2,2,4,4-tetramethylcyclobutyl)-4-(4-((4-(2-(2,6-dioxopiperidin-3-yl)-4-methylene-1-oxo-1,2,3,4-tetrahydroisoquinolin-6-yl)piperazin-1-yl)methyl)piperidin-1-yl)benzamide], in the experiment on androgen receptor (AR), the “AR Dmax” value was “A (A > 75)” and the DC50 was less than 1 nM.

Turning to `CC1(C)[C@H](NC(=O)c2ccc(N3CCC(CN4CCN(c5ccc6c(=O)n(C7CCC(=O)NC7=O)ccc6c5)CC4)CC3)cc2)C(C)(C)[C@H]1Oc1ccc(C#N)c(Cl)c1` (stereo partly shown) [PROTAC-82, N-((1r,3r)-3-(3-chloro-4-cyanophenoxy)-2,2,4,4-tetramethylcyclobutyl)-4-(4-((4-(2-(2,6-dioxopiperidin-3-yl)-1-oxo-1,2-dihydroisoquinolin-6-yl)piperazin-1-yl)methyl)piperidin-1-yl)benzamide], in the experiment on androgen receptor (AR), the “AR Dmax” value is “A (A > 75)” and the DC50 is less than 1 nM.

Take `O=C1CCC(N2C(=O)c3cc(F)c(NCCCCCCO)cc3C2=O)C(=O)N1` (stereo not shown) [compound 3]: the Kd in experiment [2] is 10 to 100 µM.

For the compound `O=C1CCC(N2Cc3c(ccc(F)c3OCCCCCCO)C2=O)C(=O)N1` (stereo not shown) [compound 4], in experiment [2], the Kd lay in the range of 10 to 100 µM.

For `O=C1CCC(N2Cc3cc(NCCCCCCO)c(F)cc3C2=O)C(=O)N1` (stereo not shown) [compound 5], the Kd in experiment [2] fell in the range of 10 to 100 µM.

In the case of `O=C1NC(C(F)(F)F)CCC1N1C(=O)c2cccc(F)c2C1=O` (stereo not shown) [compound 6], the dissociation constant Kd in experiment [2] was greater than 100 µM.

In the case of `O=C1c2cccc(F)c2C(=O)N1c1ccc(C(F)(F)F)[nH]c1=O` [compound 7], the dissociation constant (Kd) in experiment [2] is greater than 100 µM.

Consider `O=C1CCC(N2C(=O)c3c(F)ccc(F)c3C2=O)C(=O)N1` (stereo not shown) [compound 8], for which the Kd in experiment [2] is greater than 100 µM.

Take `O=C1CCC(N2C(=O)c3ccc(F)c(F)c3C2=O)C(=O)N1` (stereo not shown) [compound 9]: the Kd in experiment [2] fell in the range of 1 to 10 µM.

`CNc1ccccc1C(=O)NCCN1CCC(=O)NC1=O` [compound 10]: the Kd in experiment [2] was greater than 100 µM.

Consider `CNc1ccccc1C(=O)NCCN1C(=O)CCNC1=O` [compound 11], for which, in experiment [2], the Kd is greater than 100 µM.

As to `CNc1ccccc1C(=O)NCCn1ccc(=O)[nH]c1=O` [compound 12], the Kd in experiment [2] is greater than 100 µM.

On to `O=C1CCC(N2C(=O)c3ccccc3C2=O)C2(COC2)N1` (stereo not shown) [compound 14], for which, in experiment [2], the Kd was greater than 100 µM.

`CCOc1cnn(C2CCC(=O)NC2=O)c(=O)c1Cl` (stereo not shown) [compound 15]: the Kd in experiment [2] is greater than 100 µM.

On to `O=C1c2ccccc2C(=O)N1CCn1ccc(=O)[nH]c1=O` [compound 16], for which the Kd in experiment [2] was greater than 100 µM.

Take `O=C1CCC(N2C(=O)c3ccc(F)cc3C2=O)C(=O)N1` (stereo not shown) [compound 17]: in experiment [2], the Kd was greater than 100 µM.

For `CN1CC(N2C(=O)c3ccccc3C2=O)C(=O)NC1=O` (stereo not shown) [compound 18], the Kd in experiment [2] is greater than 100 µM.

As for `O=CN1CCC(N2C(=O)c3ccccc3C2=O)C(=O)N1` (stereo not shown) [compound 19], the Kd in experiment [2] was greater than 100 µM.

In the case of `O=C1CCC(N2Cc3ccccc3C2=O)C2(COC2)N1` (stereo not shown) [compound 20], the Kd in experiment [2] is greater than 100 µM.

Regarding `Cn1cc(N2C(=O)c3ccccc3C2=O)c(=O)[nH]c1=O` [compound 21], the Kd in experiment [2] was greater than 100 µM.

For the compound `CC1(C)C(=O)NC(=O)N1C1CC2CCCCN2C1=O` (stereo not shown) [compound 22], the Kd in experiment [2] was greater than 100 µM.

`N#Cc1cn(-c2cnc3ccccc3c2)c(=O)[nH]c1=O` [compound 23]: the Kd in experiment [2] was in the range of 10 to 100 µM.

Regarding `O=C1NC(=O)C(N2C(=O)c3cccc(F)c3C2=O)N1` (stereo not shown) [compound 24], the Kd in experiment [2] was greater than 100 µM.

Turning to `O=C1NCC(N2C(=O)c3ccccc3C2=O)C(=O)N1` (stereo not shown) [compound 25], the Kd in experiment [2] was greater than 100 µM.

With `O=C1c2ccccc2C(=O)N1c1c[nH]c(=O)[nH]c1=O` [compound 26], the Kd in experiment [2] was greater than 100 µM.

For the compound `Cc1c(N2CCC(=O)NC2=O)cnc2ccccc12` [compound 27], the Kd in experiment [2] is greater than 100 µM.

For the compound `Cc1c(-n2ccc(=O)[nH]c2=O)cnc2ccccc12` [compound 28], the Kd in experiment [2] lay in the range of 10 to 100 µM.

For `CCOc1cc(=O)n(C2CCC(=O)NC2=O)cn1` (stereo not shown) [compound 29], the Kd in experiment [2] is 10 to 100 µM.

Take `CCOc1cnn(C2CCC(=O)NC2=O)c(=O)c1` (stereo not shown) [compound 30]: the Kd in experiment [2] lay in the range of 1 to 10 µM.

Consider `CCOc1ccn(C2CCC(=O)NC2=O)c(=O)c1` (stereo not shown) [compound 31], for which the Kd in experiment [2] is greater than 100 µM.

On to `O=C1CCN(c2cncc3ccccc23)C(=O)N1` [compound 32], for which the Kd in experiment [2] fell in the range of 1 to 10 µM.

For the compound `O=c1ccn(-c2cnc3ccccc3c2)c(=O)[nH]1` [compound 33], the Kd in experiment [2] was greater than 100 µM.

As to `O=c1ccn(-c2cncc3ccccc23)c(=O)[nH]1` [compound 34], in experiment [2], the Kd lay within 10 to 100 µM.

Regarding `O=C1CN(C2Cc3ccccc3C2=O)C(=O)N1` (stereo not shown) [compound 35], the Kd in experiment [2] was greater than 100 µM.

As to `Cc1ccncc1-n1cc(C#N)c(=O)[nH]c1=O` [compound 36], the Kd in experiment [2] was greater than 100 µM.

With `O=c1ccn([C@H]2C[C@H](O)[C@@H](CO)O2)c(=O)[nH]1` [compound 37], the Kd in experiment [2] is greater than 100 µM.

For `N#Cc1cn(-c2cccnc2)c(=O)[nH]c1=O` [compound 38], the Kd in experiment [2] was greater than 100 µM.

On to `Cc1cn(-c2cccnc2)c(=O)[nH]c1=O` [compound 39], for which, in experiment [2], the Kd was greater than 100 µM.

For the compound `O=c1ccn(-c2cccnc2)c(=O)[nH]1` [compound 40], the Kd in experiment [2] lay in the range of 10 to 100 µM.

Regarding `Cc1cc(C(N)=O)[nH]c(=O)c1N1C(=O)c2ccccc2C1=O` [compound 41], the dissociation constant (Kd) in experiment [2] was greater than 100 µM.

In the case of `NC(=O)c1ccc(N2C(=O)c3ccccc3C2=O)c(=O)[nH]1` [compound 42], the Kd in experiment [2] is greater than 100 µM.

For the compound `Cc1cc(C#N)[nH]c(=O)c1N1C(=O)c2ccccc2C1=O` [compound 43], in experiment [2], the Kd was in the range of 10 to 100 µM.

On to `N#Cc1ccc(N2C(=O)c3ccccc3C2=O)c(=O)[nH]1` [compound 44], for which the Kd in experiment [2] was 10 to 100 µM.
